Measured values reported in ChEMBL document CHEMBL1201862, “PubChem BioAssay data set” (2004).
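Interpolation was linear, between the two tested concentrations surrounding the appropriate level; five concentrations were tested over 48 hours in 96-well plates. At the GI50, growth is halved.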 Active and inactive are the calls of the source. No stated cut-off is given here; in the data, active = GI50 up to about 1.1 µM and inactive = higher.

What was measured:
Assay in all cases: growth of human tumour cells (NCI), 48 h
HOP-92 = tested on: HOP-92
A498 = tested on: A498
UACC-62 = tested on: UACC-62
NCI-H226 = tested on: NCI-H226
OVCAR-3 = tested on: OVCAR-3
SNB-19 = tested on: SNB-19
HT-29 = tested on: HT-29
SK-MEL-28 = tested on: SK-MEL-28
OVCAR-8 = tested on: OVCAR-8
A549 = tested on: A549
HCC 2998 = tested on: HCC 2998
IGROV-1 = tested on: IGROV-1
SK-OV-3 = tested on: SK-OV-3
UACC-257 = tested on: UACC-257
SW-620 = tested on: SW-620
SN12C = tested on: SN12C
CCRF-CEM = tested on: CCRF-CEM
SNB-75 = tested on: SNB-75
NCI-H23 = tested on: NCI-H23

Measured: GI50

O=C(CC(=O)C1CCOC1=O)C(=O)Nc1ccc(Cl)cc1Cl (stereo not drawn)
inactive: HOP-92 > 100 µM | A498 > 100 µM | UACC-62 > 100 µM | NCI-H226 > 100 µM | OVCAR-3 > 100 µM | SNB-19 > 100 µM | HT-29 > 100 µM | SK-MEL-28 > 100 µM | OVCAR-8 > 100 µM | A549 > 100 µM | HCC 2998 > 100 µM | IGROV-1 > 100 µM | SK-OV-3 > 100 µM | UACC-257 > 100 µM | SW-620 > 100 µM | SN12C > 100 µM | CCRF-CEM > 100 µM | SNB-75 53.1 µM | NCI-H23 > 100 µM

NC(=O)N/N=C1/CCCC/C1=C\c1ccccc1
inactive: HOP-92 > 100 µM | A498 > 100 µM | UACC-62 > 100 µM | NCI-H226 > 100 µM | OVCAR-3 > 100 µM | HT-29 > 100 µM | SK-MEL-28 > 100 µM | OVCAR-8 > 100 µM | A549 > 100 µM | HCC 2998 > 100 µM | IGROV-1 > 100 µM | SK-OV-3 > 100 µM | UACC-257 > 100 µM | SW-620 > 100 µM | SN12C > 100 µM | CCRF-CEM > 100 µM | SNB-75 76.6 µM | NCI-H23 > 100 µM

N#C/C(=C\c1ccccc1)C(NO)Nc1ccccc1 (stereo not drawn)
inactive: HOP-92 57.3 µM | A498 80.2 µM | UACC-62 42.1 µM | NCI-H226 > 100 µM | OVCAR-3 48.2 µM | SNB-19 60.4 µM | HT-29 72.9 µM | SK-MEL-28 > 100 µM | OVCAR-8 66.1 µM | A549 > 100 µM | HCC 2998 > 100 µM | IGROV-1 57.3 µM | SK-OV-3 > 100 µM | UACC-257 > 100 µM | SW-620 74.8 µM | SN12C > 100 µM | CCRF-CEM 31.7 µM | SNB-75 50.6 µM | NCI-H23 > 100 µM

CCCNCCCC(NC(C)=O)C(=O)NCc1ccccc1 (stereo not drawn)
inactive: HOP-92 > 100 µM | A498 > 100 µM | UACC-62 > 100 µM | NCI-H226 > 100 µM | OVCAR-3 > 100 µM | SNB-19 > 100 µM | HT-29 > 100 µM | SK-MEL-28 > 100 µM | OVCAR-8 > 100 µM | A549 > 100 µM | HCC 2998 > 100 µM | IGROV-1 > 100 µM | SK-OV-3 > 100 µM | UACC-257 > 100 µM | SW-620 > 100 µM | SN12C > 100 µM | CCRF-CEM > 100 µM | SNB-75 51.8 µM | NCI-H23 > 100 µM

C=C1CN(Cc2ccccc2)[C@@H]2CCCCC[C@H](C#N)[C@H]12
inactive: HOP-92 36.3 µM | A498 > 100 µM | UACC-62 > 100 µM | NCI-H226 > 69.3 µM | OVCAR-3 > 93.1 µM | SNB-19 > 100 µM | HT-29 > 67.5 µM | SK-MEL-28 > 100 µM | OVCAR-8 > 68.4 µM | A549 78 µM | HCC 2998 > 100 µM | IGROV-1 > 100 µM | SK-OV-3 > 86.9 µM | UACC-257 > 100 µM | SW-620 > 94.8 µM | SN12C > 100 µM | CCRF-CEM 24.9 µM | SNB-75 > 100 µM | NCI-H23 > 93.1 µM

CC(C)(C)N/N=N/c1cn(C2OC(CO)C(O)C2O)c(=O)[nH]c1=O (stereo not drawn)
inactive: HOP-92 > 100 µM | A498 > 100 µM | UACC-62 > 100 µM | NCI-H226 > 100 µM | OVCAR-3 > 100 µM | SNB-19 > 100 µM | HT-29 > 100 µM | SK-MEL-28 > 100 µM | OVCAR-8 > 100 µM | A549 > 100 µM | HCC 2998 > 100 µM | IGROV-1 > 100 µM | SK-OV-3 > 100 µM | UACC-257 > 100 µM | SW-620 17.6 µM | SN12C > 100 µM | CCRF-CEM 26.2 µM | SNB-75 > 100 µM | NCI-H23 > 100 µM

Cc1ccccc1CN1CC=c2ccccc2=N1
inactive: HOP-92 > 100 µM | A498 > 100 µM | UACC-62 > 100 µM | NCI-H226 > 100 µM | OVCAR-3 > 100 µM | SNB-19 > 100 µM | HT-29 > 100 µM | SK-MEL-28 > 100 µM | OVCAR-8 > 100 µM | A549 93.5 µM | HCC 2998 > 100 µM | IGROV-1 > 100 µM | SK-OV-3 > 100 µM | UACC-257 > 100 µM | SW-620 > 100 µM | SN12C > 100 µM | CCRF-CEM > 100 µM | SNB-75 50.9 µM | NCI-H23 > 100 µM

O=C(OC(=O)n1ccc2ccccc21)n1ccc2ccccc21
inactive: HOP-92 > 100 µM | A498 > 100 µM | UACC-62 > 100 µM | NCI-H226 > 100 µM | OVCAR-3 > 100 µM | SNB-19 > 100 µM | HT-29 > 100 µM | SK-MEL-28 > 100 µM | OVCAR-8 > 100 µM | A549 > 100 µM | HCC 2998 > 100 µM | IGROV-1 > 100 µM | SK-OV-3 > 100 µM | UACC-257 > 100 µM | SW-620 > 100 µM | SN12C > 100 µM | CCRF-CEM > 100 µM | SNB-75 84.1 µM | NCI-H23 > 100 µM

COc1ccc(C2CCC(Cl)(OC)CC2C=O)cc1 (stereo not drawn)
inactive: HOP-92 29.9 µM | A498 > 100 µM | UACC-62 58.7 µM | NCI-H226 > 100 µM | OVCAR-3 94.2 µM | SNB-19 73.6 µM | HT-29 50.7 µM | SK-MEL-28 21 µM | OVCAR-8 85.1 µM | A549 61.5 µM | HCC 2998 > 100 µM | IGROV-1 > 100 µM | SK-OV-3 > 100 µM | UACC-257 > 100 µM | SW-620 54.3 µM | SN12C > 100 µM | CCRF-CEM 29.7 µM | SNB-75 31.4 µM | NCI-H23 34.6 µM

CN(C)C(CN)CC1=C(CC(CN)N(C)C)CCC1 (stereo not drawn)
inactive: HOP-92 > 100 µM | A498 > 100 µM | UACC-62 > 100 µM | NCI-H226 > 100 µM | OVCAR-3 > 100 µM | SNB-19 > 100 µM | HT-29 > 100 µM | SK-MEL-28 > 100 µM | OVCAR-8 > 100 µM | A549 > 100 µM | HCC 2998 > 100 µM | IGROV-1 > 100 µM | SK-OV-3 > 100 µM | UACC-257 > 100 µM | SW-620 > 100 µM | SN12C > 100 µM | CCRF-CEM > 100 µM | SNB-75 > 100 µM | NCI-H23 > 100 µM

O=C1C=CC(=CC=C2C=CN(CCCCCCCCCCC(=O)NCCCCCCCCCCCC(=O)O)C=C2)C=C1
inactive: HOP-92 > 100 µM | A498 > 100 µM | UACC-62 > 100 µM | NCI-H226 > 100 µM | OVCAR-3 > 100 µM | SNB-19 > 100 µM | HT-29 > 100 µM | SK-MEL-28 > 100 µM | OVCAR-8 > 100 µM | A549 > 100 µM | HCC 2998 > 100 µM | IGROV-1 > 100 µM | SK-OV-3 > 100 µM | UACC-257 > 100 µM | SW-620 > 100 µM | SN12C > 100 µM | CCRF-CEM > 100 µM | SNB-75 > 100 µM | NCI-H23 > 100 µM
